Source: paper PMC2783032, “Affinity maturation generates greatly improved xyloglucan-specific carbohydrate binding modules” (BMC Biotechnology, 2009)

Assays:
Assay in all cases: Isothermal titration calorimetry at 25 °C in 20 mM HEPES, pH 8.0, 2 mM CaCl2, 50 uM protein in the cell titrated with oligosaccharide, single-site non-linear regression.
Format in all cases: binding
XG-34 = target: T1, XG-34 (Rhodothermus marinus, UniProt Q7WTN6, E282H/E322D/F286L/F320H/Q321D/W279Y/Y359F); details: read-out: KA (10^3 M^-1)
T1 construct: CBM4-2 domain scaffold, hexahistidine tag (pET22b, E. coli BL21 (DE3))
Protocol: (§1) Isothermal titration calorimetry (ITC) measurements were performed at 25°C following standard procedures using a Microcal Omega titration calorimeter (Northampton, MA, USA). XXXG and XLLG (Figure 1) were prepared as previously described. Prior to analysis, the CBM were extensively dialyzed against 20 mM HEPES, pH 8.0 containing 2 mM CaCl2. The same buffer was used to dissolve tamarind seed xyloglucan, XXXG, XLLG and galactose to minimize heats of dilution. 50 μM protein samples were stirred at 300 rpm in a 1.4331 ml reaction cell. Ligands were injected as a single 1 μl aliquot followed by 27 successive 10 μl aliquots at 300 s intervals (2 mM, 7.5 mM or 10 mM XXXG; 1 mM or 5 mM XLLG; 2.5% or 5% w/v xyloglucan; 10 mM galactose). Integrated heat effects were analyzed by non-linear regression using a single-site binding model.

XG-34/1-X = tested on: T2, XG-34/1-X
T2 construct: CBM4-2 domain scaffold, hexahistidine tag (pET22b, E. coli BL21 (DE3))
Protocol: as §1

XG-34/2-VI = tested on: T3, XG-34/2-VI
T3 construct: CBM4-2 domain scaffold, hexahistidine tag (pET22b, E. coli BL21 (DE3))
Protocol: as §1

SMILES	Kd (XG-34)	KA (10^3 M^-1) (XG-34/1-X)	KA (10^3 M^-1) (XG-34/2-VI)
OC[C@H]1O[C@@H](O[C@H]2[C@@H](OC[C@H]3O[C@@H](O[C@H]4[C@H](O)[C@@H](O)[C@H](O[C@H]5[C@H](O)[C@@H](O)C(O)O[C@@H]5CO)O[C@@H]4CO[C@H]4OC[C@@H](O)[C@H](O)[C@H]4O[C@@H]4O[C@H](CO)[C@H](O)[C@H](O)[C@H]4O)[C@H](O)[C@@H](O)[C@@H]3O[C@@H]3O[C@H](CO[C@H]4OC[C@@H](O)[C@H](O)[C@H]4O)[C@@H](O)[C@H](O)[C@H]3O)OC[C@@H](O)[C@@H]2O)[C@H](O)[C@@H](O)[C@H]1O (stereo partly shown) [XLLG, xyloglucan oligosaccharide XLLG (galactose-containing nonasaccharide, Gal2Xyl3Glc4)]	~1000 µM	–	–
OC[C@H]1OC(O)[C@H](O)[C@@H](O)[C@@H]1O[C@@H]1O[C@H](CO[C@H]2OC[C@@H](O)[C@H](O)[C@H]2O)[C@@H](O[C@@H]2O[C@H](CO[C@H]3OC[C@@H](O)[C@H](O)[C@H]3O)[C@@H](O[C@@H]3O[C@H](CO[C@H]4OC[C@@H](O)[C@H](O)[C@H]4O)[C@@H](O)[C@H](O)[C@H]3O)[C@H](O)[C@H]2O)[C@H](O)[C@H]1O (stereo partly shown) [XXXG, xyloglucan oligosaccharide XXXG (non-galactosylated heptasaccharide, Xyl3Glc4)]	~1000 µM	~ ≈ 1 M-1	~ ≈ 1 M-1
